# Laboratory results reported in patent US9586969B2, “Microbiocidal heterobicyclic derivatives” (Syngenta Participations AG, priority 2014, dated 2017).
# Test system: Glomerella lagenarium (Colletotrichum lagenarium)
# Assay: Glomerella lagenarium (Colletotrichum lagenarium) / liquid culture (Anthracnose)
# Assay type: cell-based
# Settings: Colletotrichum orbiculare, read-out: disease control
row,SMILES,inhibition of growth at 200 ppm
1,CC1(C)N=C(c2cnn3c(Cl)ccc3c2)c2cccc(F)c2C1(C)C [E 13],≥ 80%

# Same assay, conditions: Colletotrichum orbiculare; 200 ppm; liquid culture, 24° C., inhibition of growth measured photometrically 3-4 days after application; vs untreated control; read-out: disease control
row,SMILES,inhibition of growth at 200 ppm
1,Cc1cccc2c1CC(C)(C)N=C2c1cnn2cccc2c1 [E 4],≥ 80%
2,CC1(C)Cc2c(Cl)cccc2C(c2cnn3cccc3c2)=N1 [E 6],≥ 80%
3,"CC1(C)Cc2c(F)cccc2C(c2cnn3c(F)ccc3c2)=N1 [E 7, 5-fluoro-1-(7-fluoro-pyrrolo[1,2-b]pyridazin-3-yl)-3,3-dimethyl-3,4-dihydro-isoquinoline]",≥ 80%
4,CC1(C)Cc2ccccc2C(c2cnn3c(F)ccc3c2)=N1 [E 8],≥ 80%
5,CC1(C)Cc2c(Br)cccc2C(c2cnn3c(F)ccc3c2)=N1 [E 9],≥ 80%
6,"CC1(C)Cc2ccccc2C(c2cnn3cccc3c2)=N1 [E 10, 3,3-dimethyl-1-pyrrolo[1,2-b]pyridazin-3-yl-4H-isoquinoline]",≥ 80%
7,CC1(C)Cc2c(F)cccc2C(c2cnn3c(F)cc(F)c3c2)=N1 [E 11],≥ 80%
8,CC1(C)N=C(c2cnn3ccc(Cl)c3c2)c2cccc(F)c2C1(C)C [E 16],≥ 80%
9,CC1(C)Cc2c(C#N)cccc2C(c2cnn3c(F)ccc3c2)=N1 [E 22],≥ 80%
10,COc1cccc2c1CC(C)(C)N=C2c1cnn2c(F)ccc2c1 [E 23],≥ 80%
11,CC1(C)N=C(c2cnn3c(F)cc(C#N)c3c2)c2cccc(F)c2C1(C)C [E 25],≥ 80%
12,Cc1ccc2cc(C3=NC(C)(C)Cc4c(F)cccc43)cnn12 [E 26],≥ 80%
13,CC1(C)Cc2c(cccc2-c2ccccc2F)C(c2cnn3c(F)ccc3c2)=N1 [E 28],≥ 80%
14,CC1(C)Cc2c(cccc2C(F)F)C(c2cnn3cccc3c2)=N1 [E 32],≥ 80%
15,CC1(C)Cc2c(O)cccc2C(c2cnn3cccc3c2)=N1 [E 34],≥ 80%
16,CC1(C)N=C(c2cnn3c(F)cc(C(F)(F)F)c3c2)c2cccc(F)c2C1(C)C [E 35],≥ 80%
17,CC1(C)N=C(c2cnn3c(I)ccc3c2)c2cccc(F)c2C1(C)C [E 37],≥ 80%
18,C#Cc1cc(F)n2ncc(C3=NC(C)(C)C(C)(C)c4c(F)cccc43)cc12 [E 40],≥ 80%
19,CC1(C)N=C(c2cnn3c(C(F)(F)F)ccc3c2)c2cccc(F)c2C1(C)C [E 43],≥ 80%
20,CC1(C)N=C(c2cnn3c(C#N)ccc3c2)c2cccc(F)c2C1(C)C [E 52],≥ 80%
21,Cc1ccc2cc(C3=NC(C)(C)C(C)(C)c4c(F)cccc43)cnn12 [E 53],≥ 80%
22,CO/N=C(\C)c1cccc2c1CC(C)(C)N=C2c1cnn2cccc2c1 [E 56],≥ 80%
23,CO/N=C(/C)c1cccc2c1CC(C)(C)N=C2c1cnn2cccc2c1 [E 57],≥ 80%
24,CC1(C)Cc2c(C#N)cccc2C(c2cnn3cccc3c2)=N1 [E 58],≥ 80%
25,CC1(C)N=C(c2cnn3cccc3c2)c2ccccc2C1(C)C [E 61],≥ 80%
26,C#Cc1ccc2cc(C3=NC(C)(C)C(C)(C)c4c(F)cccc43)cnn12 [E 62],≥ 80%
27,CC1(C)N=C(c2cnn3ccc(Br)c3c2)c2ccccc2C1=O [E 67],≥ 80%

# Test system: Botryotinia fuckeliana (Botrytis cinerea)
# Assay: Botryotinia fuckeliana (Botrytis cinerea) / liquid culture (Gray mould)
# Assay type: cell-based
# Settings: 72 h, 200 ppm, liquid culture, 24° C., inhibition of growth determined photometrically 3-4 days after application, vs untreated control, read-out: disease control
row,SMILES,inhibition of growth at 200 ppm
1,Cc1cccc2c1CC(C)(C)N=C2c1cnn2cccc2c1 [E 4],≥ 80%
2,CC1(C)Cc2c(Cl)cccc2C(c2cnn3cccc3c2)=N1 [E 6],≥ 80%
3,"CC1(C)Cc2c(F)cccc2C(c2cnn3c(F)ccc3c2)=N1 [E 7, 5-fluoro-1-(7-fluoro-pyrrolo[1,2-b]pyridazin-3-yl)-3,3-dimethyl-3,4-dihydro-isoquinoline]",≥ 80%
4,CC1(C)Cc2ccccc2C(c2cnn3c(F)ccc3c2)=N1 [E 8],≥ 80%
5,CC1(C)Cc2c(Br)cccc2C(c2cnn3c(F)ccc3c2)=N1 [E 9],≥ 80%
6,"CC1(C)Cc2ccccc2C(c2cnn3cccc3c2)=N1 [E 10, 3,3-dimethyl-1-pyrrolo[1,2-b]pyridazin-3-yl-4H-isoquinoline]",≥ 80%
7,CC1(C)Cc2c(F)cccc2C(c2cnn3c(F)cc(F)c3c2)=N1 [E 11],≥ 80%
8,CC1(C)N=C(c2cnn3ccc(Cl)c3c2)c2cccc(F)c2C1(C)C [E 16],≥ 80%
9,CC1(C)Cc2c(C#N)cccc2C(c2cnn3c(F)ccc3c2)=N1 [E 22],≥ 80%
10,COc1cccc2c1CC(C)(C)N=C2c1cnn2c(F)ccc2c1 [E 23],≥ 80%
11,CC1(C)N=C(c2cnn3c(F)cc(C#N)c3c2)c2cccc(F)c2C1(C)C [E 25],≥ 80%
12,Cc1ccc2cc(C3=NC(C)(C)Cc4c(F)cccc43)cnn12 [E 26],≥ 80%
13,CC1(C)Cc2c(cccc2-c2ccccc2F)C(c2cnn3c(F)ccc3c2)=N1 [E 28],≥ 80%
14,CC1(C)Cc2c(cccc2C(F)F)C(c2cnn3cccc3c2)=N1 [E 32],≥ 80%
15,CC1(C)Cc2c(O)cccc2C(c2cnn3cccc3c2)=N1 [E 34],≥ 80%
16,CC1(C)N=C(c2cnn3c(F)cc(C(F)(F)F)c3c2)c2cccc(F)c2C1(C)C [E 35],≥ 80%
17,CC1(C)N=C(c2cnn3c(I)ccc3c2)c2cccc(F)c2C1(C)C [E 37],≥ 80%
18,C#Cc1cc(F)n2ncc(C3=NC(C)(C)C(C)(C)c4c(F)cccc43)cc12 [E 40],≥ 80%
19,CC1(C)N=C(c2cnn3c(C(F)(F)F)ccc3c2)c2cccc(F)c2C1(C)C [E 43],≥ 80%
20,CC1(C)N=C(c2cnn3c(C#N)ccc3c2)c2cccc(F)c2C1(C)C [E 52],≥ 80%
21,Cc1ccc2cc(C3=NC(C)(C)C(C)(C)c4c(F)cccc43)cnn12 [E 53],≥ 80%
22,CO/N=C(\C)c1cccc2c1CC(C)(C)N=C2c1cnn2cccc2c1 [E 56],≥ 80%
23,CO/N=C(/C)c1cccc2c1CC(C)(C)N=C2c1cnn2cccc2c1 [E 57],≥ 80%
24,CC1(C)Cc2c(C#N)cccc2C(c2cnn3cccc3c2)=N1 [E 58],≥ 80%
25,CC1(C)N=C(c2cnn3cccc3c2)c2ccccc2C1(C)C [E 61],≥ 80%
26,C#Cc1ccc2cc(C3=NC(C)(C)C(C)(C)c4c(F)cccc43)cnn12 [E 62],≥ 80%

# Same assay, conditions: 72 h, read-out: disease control
row,SMILES,inhibition of growth at 200 ppm
1,CC1(C)N=C(c2cnn3c(Cl)ccc3c2)c2cccc(F)c2C1(C)C [E 13],≥ 80%

# Test system: Monographella nivalis (Microdochium nivale)
# Assay: Monographella nivalis (Microdochium nivale) / liquid culture (Foot rot cereals)
# Assay type: cell-based
# Settings: 96 h, 200 ppm, liquid culture, 24° C., inhibition of growth determined photometrically 4-5 days after application, vs untreated control, read-out: disease control
row,SMILES,inhibition of growth at 200 ppm
1,Cc1cccc2c1CC(C)(C)N=C2c1cnn2cccc2c1 [E 4],≥ 80%
2,CC1(C)Cc2c(Cl)cccc2C(c2cnn3cccc3c2)=N1 [E 6],≥ 80%
3,"CC1(C)Cc2c(F)cccc2C(c2cnn3c(F)ccc3c2)=N1 [E 7, 5-fluoro-1-(7-fluoro-pyrrolo[1,2-b]pyridazin-3-yl)-3,3-dimethyl-3,4-dihydro-isoquinoline]",≥ 80%
4,CC1(C)Cc2ccccc2C(c2cnn3c(F)ccc3c2)=N1 [E 8],≥ 80%
5,CC1(C)Cc2c(Br)cccc2C(c2cnn3c(F)ccc3c2)=N1 [E 9],≥ 80%
6,"CC1(C)Cc2ccccc2C(c2cnn3cccc3c2)=N1 [E 10, 3,3-dimethyl-1-pyrrolo[1,2-b]pyridazin-3-yl-4H-isoquinoline]",≥ 80%
7,CC1(C)Cc2c(C#N)cccc2C(c2cnn3c(F)ccc3c2)=N1 [E 22],≥ 80%
8,CC1(C)N=C(c2cnn3c(F)cc(C#N)c3c2)c2cccc(F)c2C1(C)C [E 25],≥ 80%
9,Cc1ccc2cc(C3=NC(C)(C)Cc4c(F)cccc43)cnn12 [E 26],≥ 80%
10,CC1(C)Cc2c(cccc2C(F)F)C(c2cnn3cccc3c2)=N1 [E 32],≥ 80%
11,CC1(C)N=C(c2cnn3c(I)ccc3c2)c2cccc(F)c2C1(C)C [E 37],≥ 80%
12,CC1(C)N=C(c2cnn3c(C(F)(F)F)ccc3c2)c2cccc(F)c2C1(C)C [E 43],≥ 80%
13,CC1(C)N=C(c2cnn3c(C#N)ccc3c2)c2cccc(F)c2C1(C)C [E 52],≥ 80%
14,Cc1ccc2cc(C3=NC(C)(C)C(C)(C)c4c(F)cccc43)cnn12 [E 53],≥ 80%
15,C#Cc1ccc2cc(C3=NC(C)(C)C(C)(C)c4c(F)cccc43)cnn12 [E 62],≥ 80%
16,CC1(C)N=C(c2cnn3ccc(Br)c3c2)c2ccccc2C1=O [E 67],≥ 80%

# Same assay, conditions: 96 h, read-out: disease control
row,SMILES,inhibition of growth at 200 ppm
1,CC1(C)N=C(c2cnn3c(Cl)ccc3c2)c2cccc(F)c2C1(C)C [E 13],≥ 80%

# Test system: Fusarium culmorum
# Assay: microbe, parasite or virus in culture
# Assay type: cell-based
# Settings: 72 h, read-out: disease control
row,SMILES,inhibition of growth at 200 ppm
1,CC1(C)Cc2c(Cl)cccc2C(c2cnn3cccc3c2)=N1 [E 6],≥ 80%
2,"CC1(C)Cc2c(F)cccc2C(c2cnn3c(F)ccc3c2)=N1 [E 7, 5-fluoro-1-(7-fluoro-pyrrolo[1,2-b]pyridazin-3-yl)-3,3-dimethyl-3,4-dihydro-isoquinoline]",≥ 80%
3,CC1(C)Cc2c(Br)cccc2C(c2cnn3c(F)ccc3c2)=N1 [E 9],≥ 80%
4,CC1(C)Cc2c(C#N)cccc2C(c2cnn3c(F)ccc3c2)=N1 [E 22],≥ 80%
5,Cc1ccc2cc(C3=NC(C)(C)Cc4c(F)cccc43)cnn12 [E 26],≥ 80%
6,CC1(C)Cc2c(cccc2C(F)F)C(c2cnn3cccc3c2)=N1 [E 32],≥ 80%
7,CC1(C)N=C(c2cnn3c(C#N)ccc3c2)c2cccc(F)c2C1(C)C [E 52],≥ 80%
8,Cc1ccc2cc(C3=NC(C)(C)C(C)(C)c4c(F)cccc43)cnn12 [E 53],≥ 80%
9,CC1(C)Cc2c(C#N)cccc2C(c2cnn3cccc3c2)=N1 [E 58],≥ 80%
10,CC1(C)N=C(c2cnn3cccc3c2)c2ccccc2C1(C)C [E 61],≥ 80%
